# Reference: BindingDB's records for doi:10.1016/s0960-894x(99)00675-7 (Medivir, 2000)
# Molecular target: T1, Gag-Pol polyprotein [588-1027]/[588-1147] (Human immunodeficiency virus 1, UniProt P04585)
# T1 construct: 588-1027; 588-1147
# Assay: HIV-1 RT Assay
# Conditions: pH 7.8; 37 °C
# From the text: The IC50 of reverse transcriptase is the concentration that inhibits 50% of recombinant HIV-1 RT RNA-directed DNA polymerase activity in vitro.
row,SMILES,IC50 [µM]
1,"COc1ccccc1CCN=C(NC#N)Nc1nccs1 [2-cyano-3-[2-(2-methoxyphenyl)ethyl]-1-1,3-thiazol-2-ylguanidine]",> 10
2,O=C(CCNC(=S)Nc1ccc(Br)cn1)c1ccccc1 [3-(5-bromopyridin-2-yl)-1-(3-oxo-3-phenylpropyl)thiourea],< 0.027
3,"O=C(CC/N=C(\S)Nc1ccc(Br)cn1)c1cc(F)ccc1F [3-(5-bromopyridin-2-yl)-1-[3-(2,5-difluorophenyl)-3-oxopropyl]thiourea]",< 0.025
4,N#CN/C(=N\c1ccc(Cl)cn1)NCCc1ccccc1 [5-chloro-2-cyano-1-(2-phenylethyl)pyridine-2-guanidine],> 10
5,O=S(=O)(NCCc1ccccc1)Nc1ccc(Cl)cn1 [[(5-chloropyridin-2-yl)sulfamoyl](2-phenylethyl)amine],> 10
